These results are taken from US8119773B2, “Compositions and methods for facilitating heme-iron export from cells” (University of Washington, priority 2007, dated 2012).

Ends that are not written are not given here.

For assay [1] the following is noted: heme binding; cited from earlier work.
Another assay has as its target T1, human FLVCR (Homo sapiens, UniProt Q9Y5Y0).
T1 construct: expressed in transfected cells; host or cells: NRK (rat kidney) cells engineered to express human FLVCR
T1 sequence (Q9Y5Y0 1-555): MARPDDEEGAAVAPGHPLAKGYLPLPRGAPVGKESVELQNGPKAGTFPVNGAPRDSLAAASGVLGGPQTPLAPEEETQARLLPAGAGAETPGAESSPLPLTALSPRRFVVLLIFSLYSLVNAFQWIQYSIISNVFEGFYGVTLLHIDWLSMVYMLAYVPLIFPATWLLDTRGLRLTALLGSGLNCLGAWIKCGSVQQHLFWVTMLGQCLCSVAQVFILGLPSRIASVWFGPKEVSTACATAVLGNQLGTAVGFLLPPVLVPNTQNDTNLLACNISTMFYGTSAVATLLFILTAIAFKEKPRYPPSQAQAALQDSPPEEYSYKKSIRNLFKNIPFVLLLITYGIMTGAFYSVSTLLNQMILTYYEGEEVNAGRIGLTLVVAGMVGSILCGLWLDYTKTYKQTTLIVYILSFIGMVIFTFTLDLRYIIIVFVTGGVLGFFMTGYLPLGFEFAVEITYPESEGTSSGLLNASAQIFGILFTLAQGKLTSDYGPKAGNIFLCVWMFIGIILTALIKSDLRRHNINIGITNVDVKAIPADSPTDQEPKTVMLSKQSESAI
In words: ZnMP export from NRK cells engineered to express human FLVCR, with carrier protein. The class given is cell-based. To be noted: NRK cells expressing human FLVCR; 37° C. for 90 min.

In assay [2] the test system is bone marrow-derived macrophages. The experiment in a line: Ferritin studies in macrophages (ELISA) with or without hepcidin. To be noted: control and Flvcr-deleted macrophages exposed to FAC (10 μM Fe) 24 hours, washed, then 24 hours with hepcidin (1 ug/ul). The class given is cell-based, mouse. How it is done: FIGS. 4A-4B. FLVCR exports heme-iron from macrophages. (4A) Bone marrow-derived macrophages from control (striped) and mice in which Flvcr was deleted neonatally (black) were incubated in the absence or presence of FAC (10 μM Fe) for 24 or 48 hours, then washed; ferritin was measured by enzyme-linked immunosorbent (ELISA) (i). Cells were incubated with FAC for 24 hours (ii) or with IgG-coated red blood cells (RBC) for 90 min (iii), washed, then incubated for an additional 24 hours with or without hepcidin (1 ug/ul) and ferritin assayed. Data represent ferritin values in macrophages derived from two control and two deleted mice±SEM of triplicate samples per mouse. (4B) Model of macrophage heme-iron recycling.
Murine macrophage culture. Single-cell suspensions of mouse bone marrow were collected from mice 5 days after completing poly(I)-poly(C) treatment. […] Macrophages were defined by flow cytometry (Mac-1^+, f4/80^+, GR-1^−) and analyzed for ZnMP and ^55Fe-hemin export 10-24 days post in vivo deletion (after 5-19 days in culture).
Ferritin studies in macrophages. […] After 24 hrs, the samples were collected in lysis buffer (150 mM NaCl, 10 mM EDTA, 1% Triton X-100, 10 mM Tris pH 7.4), and complete protease inhibitor (Roche Diagnostics Co., Indianapolis, Ind.) and analyzed for ferritin levels as described (S16).

Excerpt for human FLVCR: ZnMP and ^55Fe-hemin uptake and washout studies.
To gain insights into the structure and function of FLVCR, we first studied the export of zinc mesoporphyrin (ZnMP), a fluorescent heme analog that traffics similarly to heme and also blocks heme oxygenase activity.

A word on the Kd: it is the free concentration of one partner at which half of the binding sites on the other are occupied at equilibrium, for simple one-to-one binding. Consider hemopexin [Hpx], for which, in assay [1], the equilibrium dissociation constant (Kd) is less than 1 pM. For the same substance, in the assay with human FLVCR, the “efficacy in inducing ZnMP export, relative to albumin” value came to 100 fold. On to “hepcidin (DTHFPICIFCCGCCHRSKCGMCCKT; ends and bridges not checked; cysteine pairing not given here; UniProt P81172 60-84, looked up)”, for which the ferritin result in assay [2] was “increase equivalently”.
